Test results from the supplement of paper PMC10883282.
± gives the standard deviation of the averaged measurements.

Test system: A204
Test: relative viability vs DMSO control (72 h) (fraction); higher = more viable cells
Method in brief: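 Sarcoma cell lines were grown in 384-well plates seeded toward 80–90% confluence and exposed 24 h later to serially diluted compound. After 72 h at 37 °C and 5% CO2, with 0.1% DMSO vehicle and a 5 µM positive control on the plates, ATPLite was read. Relative viability, given as percent growth averaged over up to triplicate wells, was rescaled so that 1 is full and 0 is none.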

Row | SMILES | relative viability (0.00017 µM) | relative viability (0.00051 µM) | relative viability (0.00152 µM) | relative viability (0.00457 µM) | relative viability (0.01372 µM) | relative viability (0.04115 µM) | relative viability (0.1235 µM) | relative viability (0.3704 µM) | relative viability (1.111 µM) | relative viability (3.333 µM) | relative viability (10 µM) | relative viability (2 pM) | relative viability (5 pM) | relative viability (15 pM) | relative viability (50 pM) | relative viability (0.00014 µM) | relative viability (0.00041 µM) | relative viability (0.0012 µM) | relative viability (0.0037 µM) | relative viability (0.011 µM) | relative viability (200 fM) | relative viability (600 fM)
1 | N#CC[C@H](C1CCCC1)n1cc(-c2ncnc3[nH]ccc23)cn1 [Ruxolitinib] | 1.02 ± 0.015 | 1.03 ± 0.018 | 1.02 ± 0.049 | 1.02 ± 0.027 | 1.01 ± 0.026 | 1.01 ± 0.005 | 1.008 ± 0.0097 | 0.983 ± 0.031 | 0.96 ± 0.083 | 0.789 ± 0.053 | 0.655 ± 0.05 |  |  |  |  |  |  |  |  |  |  | 
2 | Cc1cc(C)c(/C=C2\C(=O)Nc3ccccc32)[nH]1 [Semaxanib] | 1.02 ± 0.067 | 1.03 ± 0.021 | 0.964 ± 0.055 | 0.966 ± 0.067 | 0.977 ± 0.052 | 0.925 ± 0.075 | 0.883 ± 0.015 | 0.852 ± 0.032 | 0.823 ± 0.041 | 0.568 ± 0.043 | 0.33 ± 0.032 |  |  |  |  |  |  |  |  |  |  | 
3 | Cc1nc(-c2cn3c(n2)-c2ccc(-c4cnn(C(C)(C)C(N)=O)c4)cc2OCC3)n(C(C)C)n1 [Taselisib] | 1.05 ± 0.1 | 1.03 ± 0.086 | 0.993 ± 0.039 | 0.924 ± 0.061 | 0.852 ± 0.085 | 0.742 ± 0.041 | 0.609 ± 0.021 | 0.538 ± 0.028 | 0.435 ± 0.019 | 0.354 ± 0.038 | 0.29 ± 0.02 |  |  |  |  |  |  |  |  |  |  | 
4 | CN1CCC(COc2cnc(-c3cccc(Cn4nc(-c5cccc(C#N)c5)ccc4=O)c3)nc2)CC1 [Tepotinib] | 1.11 ± 0.052 | 1.09 ± 0.052 | 1.1 ± 0.044 | 1.09 ± 0.059 | 1.08 ± 0.043 | 1.05 ± 0.012 | 1.09 ± 0.047 | 1.05 ± 0.03 | 1.07 ± 0.083 | 1.06 ± 0.073 | 0.76 ± 0.054 |  |  |  |  |  |  |  |  |  |  | 
5 | COc1cc2nccc(Oc3ccc(NC(=O)Nc4cc(C)on4)c(Cl)c3)c2cc1OC [Tivozanib] | 1.1 ± 0.05 | 1.07 ± 0.048 | 1.09 ± 0.032 | 1.08 ± 0.026 | 0.998 ± 0.063 | 0.712 ± 0.021 | 0.504 ± 0.038 | 0.438 ± 0.025 | 0.418 ± 0.029 | 0.348 ± 0.0075 | 0.228 ± 0.02 |  |  |  |  |  |  |  |  |  |  | 
6 | C[C@@H]1CCN(C(=O)CC#N)C[C@@H]1N(C)c1ncnc2[nH]ccc12 [Tofacitinib] | 1.09 ± 0.031 | 1.09 ± 0.014 | 1.04 ± 0.046 | 1.08 ± 0.023 | 1.06 ± 0.064 | 1.04 ± 0.094 | 1.02 ± 0.052 | 1.06 ± 0.017 | 1.04 ± 0.057 | 1.02 ± 0.014 | 0.99 ± 0.033 |  |  |  |  |  |  |  |  |  |  | 
7 | COc1cc2c(cc1O)CCN[C@]21CS[C@@H]2c3c(OC(C)=O)c(C)c4c(c3[C@H](COC1=O)N1[C@@H]2[C@H]2c3c(cc(C)c(OC)c3O)C[C@@H]([C@@H]1O)N2C)OCO4 [Trabectedin] |  |  |  |  |  |  |  |  |  |  |  | 1.08 ± 0.026 | 1.06 ± 0.03 | 1.05 ± 0.056 | 0.979 ± 0.02 | 0.84 ± 0.031 | 0.399 ± 0.17 | 0.156 ± 0.13 | 0.215 ± 0.0065 | 0.202 ± 0.014 | 1.07 ± 0.03 | 1.1 ± 0.043
8 | CC(=O)Nc1cccc(-n2c(=O)n(C3CC3)c(=O)c3c(Nc4ccc(I)cc4F)n(C)c(=O)c(C)c32)c1 [Trametinib] | 1.08 ± 0.084 | 1.08 ± 0.05 | 1.09 ± 0.034 | 1.08 ± 0.035 | 1.04 ± 0.047 | 0.977 ± 0.06 | 0.77 ± 0.071 | 0.576 ± 0.024 | 0.544 ± 0.022 | 0.536 ± 0.0082 | 0.491 ± 0.015 |  |  |  |  |  |  |  |  |  |  | 
9 | Cc1cc(Nc2ncnc3ccc(NC4=NC(C)(C)CO4)cc23)ccc1Oc1ccn2ncnc2c1 [Tucatinib] | 1.092 ± 0.0055 | 1.08 ± 0.021 | 1.08 ± 0.024 | 1.1 ± 0.016 | 1.1 ± 0.012 | 1.08 ± 0.011 | 1.09 ± 0.025 | 1.02 ± 0.052 | 1.02 ± 0.067 | 0.985 ± 0.13 | 0.636 ± 0.034 |  |  |  |  |  |  |  |  |  |  | 
10 | COc1cc2/c(=N/c3ccc(Br)cc3F)nc[nH]c2cc1OCC1CCN(C)CC1 [Vandetanib] | 1.04 ± 0.076 | 1.02 ± 0.018 | 1.02 ± 0.049 | 1.03 ± 0.067 | 1.04 ± 0.046 | 1 ± 0.067 | 0.981 ± 0.057 | 0.93 ± 0.07 | 0.706 ± 0.039 | 0.348 ± 0.073 | 0.0148 ± 0.0046 |  |  |  |  |  |  |  |  |  |  | 
11 | CCCS(=O)(=O)Nc1ccc(F)c(C(=O)c2c[nH]c3ncc(-c4ccc(Cl)cc4)cc23)c1F [Vemurafenib] | 1.066 ± 0.009 | 1.09 ± 0.011 | 1.07 ± 0.067 | 1.09 ± 0.043 | 1.08 ± 0.047 | 1.07 ± 0.018 | 1.07 ± 0.038 | 1.11 ± 0.025 | 1.12 ± 0.027 | 1.02 ± 0.054 | 0.617 ± 0.029 |  |  |  |  |  |  |  |  |  |  | 
12 | C[C@@H](c1ccc2nccn2c1)n1nnc2ncc(-c3cnn(C)c3)nc21 [Volitinib] | 1.05 ± 0.014 | 1.08 ± 0.046 | 1.1 ± 0.031 | 1.08 ± 0.038 | 1.08 ± 0.033 | 1.07 ± 0.026 | 1.06 ± 0.031 | 1.06 ± 0.044 | 1.05 ± 0.042 | 0.962 ± 0.038 | 0.842 ± 0.072 |  |  |  |  |  |  |  |  |  |  | 
13 | C=CC(=O)N1CCC([C@@H]2CCNc3c(C(N)=O)c(-c4ccc(Oc5ccccc5)cc4)nn32)CC1 [Zanubrutinib] | 1.02 ± 0.029 | 0.991 ± 0.041 | 1 ± 0.046 | 1.02 ± 0.033 | 1.013 ± 0.0088 | 0.969 ± 0.019 | 1.02 ± 0.049 | 0.944 ± 0.084 | 0.897 ± 0.071 | 0.871 ± 0.023 | 0.764 ± 0.03 |  |  |  |  |  |  |  |  |  |  | 
